These results are taken from paper PMC8931250, “A SURF4-to-proteoglycan relay mechanism that mediates the sorting and secretion of a tagged variant of sonic hedgehog” (Proceedings of the National Academy of Sciences of the …, 2022).

By Kd is commonly meant a measure of binding affinity in units of concentration.

This experiment addresses T1, GST-SURF4^49-60 (Homo sapiens, UniProt O15260).
T1 construct: SURF4 (49-60) in the same buffer was in the calorimetric cell; made in house; host or cells: Escherichia coli
In words: Isothermal titration calorimetry, CW peptide vs GST-SURF4(49-60). Format: binding. The settings on record: ITC (PEAQ-ITC); 500 µM CW peptide into 50 µM GST-SURF4 (49-60); 10 mM PBS, 0.5 mM HEPES, 6.3 mM sorbitol, 1.75 mM KOAc, 25 µM Mg(OAc)2, 25 µM BSA, 0.003% Triton, pH 7.2; one set of site model; read-out: Kd of CW peptides for GST-SURF4^49-60. The source says: To measure a direct interaction, we immobilized the first luminal loop of SURF4 (SEQRDYIDTTWNC, referred to as SURF4 luminal peptides) on beads and then performed pull down analysis using purified GST and Shh^25-49-GST as prey (Fig. 3H). […] As an additional test, we performed pull down analysis using peptides corresponding to the CW motif (KRRHPKKC, referred to as CW peptides) as bait and purified GST-SURF4^49-60 as prey (Fig. 3J). […] We then immobilized peptides corresponding to the first intracellular loop of Frizzled6 (VRRFRYPERPC, referred to as RRFR) ([27]) on beads.
The samples were centrifuged at 55,000 rpm in a TLS55 rotor in a Beckman ultracentrifuge for 2 hr at 4 °C.
After centrifugation, fractions were collected from the top to the bottom of the tube, and the top fraction was analyzed by SDS-PAGE and immunoblotting.
Isothermal titration calorimetry (ITC)
We utilized a commercial isothermal titration calorimeter (PEAQ-ITC system, MicroCal, Malvern Panalytical, United Kingdom) to perform titration experiments. In these experiments, a 500 µM solution of CW peptide in a diluted binding buffer (10 mM PBS, 0.5 mM HEPES, 6.3 mM sorbitol, 1.75 mM KOAc, 25 µM Mg(OAc)2 , 25 µM BSA, 0.003% Triton, pH 7.2) was loaded into the syringe of the ITC instrument and a 50 µM solution of GST -SURF4 (49-60) in the same buffer was in the calorimetric cell. […]
A general note: In ITC the heat of successive injections is recorded.

Ends that are not written are not given here.

KRRHPKKC [CW peptides]: the Kd was found to be 2350 ± 90 nM.
